IC50, inhibition and MIC data for 35 compounds are collected here from ChEMBL document CHEMBL1140598, “A review of anti-infective and anti-inflammatory chalcones” (Eur J Med Chem, 2007).

Assay [1] relates to Candida albicans. The assay is described as follows: Antifungal activity against Candida albicans. Type of assay: functional, organism-based.
Assay [2] concerns Cryptococcus neoformans. The assay is described as follows: Antifungal activity against Cryptococcus neoformans. Type of assay: functional, organism-based.
In assay [3] the test system is Mycobacterium tuberculosis. In words: Antibacterial activity against Mycobacterium tuberculosis H37Rv at 12.5 ug/mL. Type of assay: functional.
Assay [4] has as its system Leishmania donovani. In words: Inhibition of Leishmania donovani amastigotes in human monocyte-derived macrophages. Format: functional, organism-based.
Assay [5] concerns Leishmania major. In words: Growth inhibition of Leishmania major promastigotes assessed as [3H]thymidine incorporation. Format: functional, organism-based.
Assay [6] deals with RAW. The assay is described as follows: Inhibition of nitric oxide production in LPS-stimulated mouse RAW 264.7 cells. Type of assay: functional, cell-based.
The nature of assay [7]: Inhibition of Leishmania donovani solubilized fumarate reductase.
Assay [8] concerns Plasmodium falciparum. The assay is described as follows: Antimalarial activity against chloroquine-resistant Plasmodium falciparum K1 by [3H]hypoxanthine incorporation. Format: functional, organism-based.
The subject of assay [9] is Colletotrichum truncatum. The assay is described as follows: Antifungal activity against Colletotrichum truncatum CE175. Type of assay: functional, Glomerella truncata.
Assay [10] relates to Diaporthe longicolla. The assay is described as follows: Antifungal activity against Phomopsis longicolla Hobbs CE117. Type of assay: functional.
Assay [11] has as its system Plasmodium falciparum. In words: Antiplasmodial activity against chloroquine-resistant Plasmodium falciparum W2. Format: functional, organism-based.
The test system of assay [12] is Plasmodium falciparum. In words: Antiplasmodial activity against chloroquine-sensitive Plasmodium falciparum D6. Type of assay: functional, organism-based.
Assay [13] has as its system Plasmodium falciparum. In words: Antimalarial activity against Plasmodium falciparum. Type of assay: functional, organism-based.
For assay [14], the system named is Trichophyton rubrum. In words: Antifungal activity against Trichophyton rubrum. Type of assay: functional.
Assay [15] has as its target Protease (Human immunodeficiency virus 1) (UniProt Q9YQ12). The assay is described as follows: Inhibition of HIV1 protease at 50 ug/mL.
For assay [16], the system named is Staphylococcus aureus. The assay is described as follows: Antibacterial activity against Staphylococcus aureus. Format: functional, organism-based.
For assay [17], the system named is Colletotrichum truncatum. In words: Antifungal activity against Colletotrichum capsici. Format: functional.
In assay [18] the test system is Staphylococcus aureus. In words: Antibacterial activity against methicillin-resistant Staphylococcus aureus. Format: functional, organism-based.

pIC50: −log10 of the molar value. Converted amounts (≈) assume the structure as drawn.

Protease (Human immunodeficiency virus 1), sequence (Q9YQ12 as listed by the source): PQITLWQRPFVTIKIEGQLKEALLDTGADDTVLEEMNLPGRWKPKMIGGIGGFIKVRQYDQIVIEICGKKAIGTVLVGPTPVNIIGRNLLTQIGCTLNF

As for `C=C(C)C(O)Cc1c(O)ccc(C(=O)/C=C/c2ccc(O)cc2)c1O` (configuration not stated), the results for the IC50 in [1] and in assay [2] were 15 µg/mL (≈ 44.1 µM) and 7 µg/mL (≈ 20.6 µM), respectively. Compound `O=C(/C=C/c1cccc(I)c1)c1ccccc1O` showed an inhibition at 12.5 µg/mL in assay [3] of 90%.

Take `CC(C)=CCc1c(O)ccc(C(=O)/C=C/c2ccc(O)cc2)c1O` [ISOBAVACHALCONE]: the IC50 in assay [1] was 3 µg/mL (≈ 9.25 µM); in assay [2], 7 µg/mL (≈ 21.6 µM). With `COc1ccc(/C=C/C(=O)c2ccccc2)c(OC)c1`, the figures for the pIC50 in assay [4] and in assay [5] were 6.19 and 5.40, respectively. As for `COc1cccc(OC)c1C(=O)/C=C/c1ccc(N(C)C)cc1`, the pIC50 in [6] is 6.22.

On to `C=CCOc1ccc(C(=O)/C=C/c2ccc(OC)cc2OC)cc1`, for which the pIC50 was 3.82 in assay [7], 6.19 in assay [4] and 5.40 in assay [5].

Take `COc1ccc(/C=C/C(=O)c2ccccc2O)c(OC)c1`: the pIC50 in assay [4] is 6.19; in [5] it was 5.40.

In the case of `O=C(/C=C/c1ccc(Cl)c(Cl)c1)c1ccc(O)cc1`, the pIC50 in [8] is 4.70.

Turning to `COc1ccc(C(=O)/C=C/c2ccc(C(F)(F)F)cc2)c(OC)c1OC`, the pIC50 in assay [8] is 5.19. Take `COc1c(O)ccc(C(=O)/C=C/c2ccccc2)c1O` [LARREIN]: the MIC in assay [9] and in [10] was 6.25 µg/mL (≈ 23.1 µM) each time. As for `COc1cc(/C=C/C(=O)c2ccc(O)cc2O)ccc1O` [HOMOBUTEIN], the pIC50 in [11] and in [12] was 4.99 throughout. The compound `O=C(/C=C/c1cccc(Cl)c1)c1ccccc1O` returned an inhibition at 12.5 µg/mL in [3] of 90%. As to `CC(C)=CCc1cc(/C=C/C(=O)c2ccc(O)cc2O)cc(O)c1O` [5'-PRENYLBUTEIN], the pIC50 in [11] and in assay [12] was 4.99 each time.

Turning to `O=C(Nc1ccc(Cl)cc1)Nc1ccc(C(=O)/C=C/c2ccc(F)cc2F)cc1`, the pIC50 in assay [13] was 5.75.

Consider `O=C(/C=C/c1ccccc1)c1ccc(O)cc1O` [2',4'-DIHYDROXYCHALCONE], for which the MIC in [9] and in assay [10] was 6.25 µg/mL (≈ 26 µM) throughout. `COc1cc(O)c(C(=O)/C=C/c2ccccc2Cl)c(OC)c1` registered an MIC in assay [14] of 12.5 µg/mL (≈ 39.2 µM).

Regarding `O=C(/C=C/c1ccc(F)cc1F)c1ccc(O)cc1O`, in assay [8], the pIC50 is 4.70.

On to `O=C(/C=C/c1ccccc1)c1ccccc1O` [2'-HYDROXYCHALCONE], for which at 12.5 µg/mL the inhibition in [3] was 61%. Take `CCc1ccc(/C=C/C(=O)c2ccc(OC)cc2OC)cc1`: the pIC50 in assay [8] was 5.19. In the case of `COc1ccc(C(=O)/C=C/c2ccc(C(F)(F)F)cc2)c(OC)c1`, the negative-log IC50 (pIC50) in assay [8] is 5.19. Consider `COc1ccc(C(=O)/C=C/c2ccc(F)cc2F)c(OC)c1`, for which the pIC50 in [8] is 5.19. As to `O=C(Nc1ccc(Cl)cc1)Nc1ccc(C(=O)/C=C/c2ccc(Cl)cc2Cl)cc1`, in [13], the pIC50 is 5.75. `COc1ccc(OC)c(C(=O)/C=C/c2ccc(N(C)C)cc2)c1` gave a pIC50 in assay [6] of 6.15. In turn, `O=C(CCc1ccc(O)cc1)c1c(O)cc(O)cc1O` came in with an inhibition in assay [15] of 27%. On to `COc1cc(/C=C/C(=O)c2ccc(NC(=O)Nc3ccc(Cl)cc3)cc2)cc(OC)c1OC`, for which the pIC50 in assay [13] is 5.75. As for `C=CC(C)(C)c1cc(/C=C/C(=O)c2ccc(O)cc2)c(OC)cc1Cl`, the MIC in assay [16] was 10 µg/mL (≈ 28 µM). `COc1ccc(C(=O)/C=C/c2ccccc2)c(O)c1`: the inhibition at 12.5 µg/mL in assay [3] amounted to 78%. In turn, `COc1ccc(C(=O)/C=C/c2ccc(Cl)cc2Cl)c(OC)c1OC` showed a pIC50 in assay [8] of 5.19. Same read-out and setting: as for `CN(C)c1ccc(/C=C/C(=O)c2ccc(O)cc2)cc1`, the figure is 4.70. `Cc1ccc(/C=C/C(=O)c2ccc(C)cc2)cc1` [4,4'-DIMETHYLCHALCONE] displayed an MIC in [17] of 6.25 µg/mL (≈ 26.4 µM). Compound `O=C(/C=C/c1ccc(O)c(O)c1)c1ccc(O)cc1O` gave an inhibition in assay [15] of 50%.

As to `COc1ccc(/C=C/C(=O)c2ccc(O)cc2)c(OC)c1`, the pIC50 in assay [4] is 6.19; in [5], 5.40. With `O=C(/C=C/c1ccccc1)c1ccc(Cl)cc1O`, the inhibition at 12.5 µg/mL in assay [3] turned out to be 89%. With `COc1cc(O)c(C(=O)CCc2ccc(O)cc2)c(O)c1` [ASEBOGENIN], the IC50 came out at 4.5 µg/mL (≈ 15.6 µM) in assay [18] and 10 µg/mL (≈ 34.7 µM) in assay [16]. Regarding `COc1ccc(/C=C/C(=O)c2ccc(OC)cc2OC)c(OC)c1`, the pIC50 in assay [8] was 5.19.

Broadly, the IC50 is the concentration that gives 50% inhibition. Higher therefore signals a need for much substance. In general, inhibition refers to the relative decrease from the control value, in per cent. Low values mean little suppression, high ones strong suppression. A word on the pIC50: it is the IC50 on a negative log10 scale, so that one unit is a factor of ten. The term MIC denotes the least concentration at which growth counts as inhibited.
